In ChEMBL document CHEMBL1201862, “PubChem BioAssay data set” (2004):
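Briefly, cells in 96-well plates were exposed to five compound concentrations for 48 h, and endpoints were estimated by linear interpolation. Here, GI50 denotes the concentration required for 50% inhibition of growth.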 The source made the active and inactive calls. Cut-off read from the data, not from the text of the source: active = GI50 up to about 1.1 µM and inactive = higher.

Tests used:
Test in all cases: DTP human tumour cell line panel, 48 h
[1] = tested on: A498
[2] = tested on: CAKI-1
[3] = tested on: CCRF-CEM
[4] = tested on: DLD-1
[5] = tested on: DMS-273
[6] = tested on: HCT-15
[7] = tested on: HL-60
[8] = tested on: HOP-18
[9] = tested on: KM-20L2
[10] = tested on: KM12
[11] = tested on: NCI-H522
[12] = tested on: OVCAR-4
[13] = tested on: SK-MEL-28
[14] = tested on: SN12C
[15] = tested on: SNB-75
[16] = tested on: SW-620
[17] = tested on: U-251
[18] = tested on: UACC-62
[19] = tested on: UO-31
[20] = tested on: XF498

Row | Compound | GI50 [1] | GI50 [2] | GI50 [3] | GI50 [4] | GI50 [5] | GI50 [6] | GI50 [7] | GI50 [8] | GI50 [9] | GI50 [10] | GI50 [11] | GI50 [12] | GI50 [13] | GI50 [14] | GI50 [15] | GI50 [16] | GI50 [17] | GI50 [18] | GI50 [19] | GI50 [20]
1 | O=S(=O)(CCBr)CCBr | 6.3 µM (inactive) | 5.3 µM (inactive) | 2.96 µM (inactive) | 2.86 µM (inactive) | 4.59 µM (inactive) | 2.64 µM | 2.59 µM (inactive) | 15 µM (inactive) | 11.1 µM (inactive) | 13.9 µM (inactive) | 1.48 µM (inactive) | 9.57 µM (inactive) | 2.67 µM (inactive) | 9.02 µM (inactive) | 12.8 µM (inactive) | 2.23 µM (inactive) | 15.7 µM (inactive) | 2.96 µM (inactive) | 30.8 µM (inactive) | < 0.01 µM (active)
2 | CCOC(=O)c1csc(NC(=O)C(C)N2CCOCC2)n1 (stereo not given) | > 100 µM (inactive) | > 100 µM (inactive) | > 100 µM (inactive) |  |  | > 100 µM | > 100 µM (inactive) |  |  | > 100 µM (inactive) |  | > 100 µM (inactive) | > 100 µM (inactive) |  | > 100 µM (inactive) | > 100 µM (inactive) | > 100 µM (inactive) | > 100 µM (inactive) | > 100 µM (inactive) | 
3 | N#CCCN(CCC#N)c1ccc(/C=C2\N=C(c3cc([N+](=O)[O-])ccc3Cl)N(S(=O)(=O)c3ccccc3)C2=O)cc1 |  | > 100 µM (inactive) | > 100 µM (inactive) | > 100 µM (inactive) | > 100 µM (inactive) | > 100 µM |  | 37.7 µM (inactive) | > 100 µM (inactive) | > 100 µM (inactive) | > 100 µM (inactive) | > 100 µM (inactive) | > 100 µM (inactive) | > 100 µM (inactive) |  | > 100 µM (inactive) | > 100 µM (inactive) | > 100 µM (inactive) | > 100 µM (inactive) | > 100 µM (inactive)
4 | CC(=O)C(=O)NC1/C=C(C)\C=C/C(O)C/C=C(C)\C=C/C(O)CC2OC(=O)C1(C)C(=O)C2C (stereo not given) | > 100 µM (inactive) | > 100 µM (inactive) | > 76.7 µM (inactive) | > 100 µM (inactive) | > 100 µM (inactive) | > 100 µM |  | > 100 µM (inactive) | > 100 µM (inactive) | > 100 µM (inactive) | > 100 µM (inactive) | > 100 µM (inactive) | > 100 µM (inactive) | > 100 µM (inactive) | > 100 µM (inactive) | > 100 µM (inactive) | > 100 µM (inactive) | > 100 µM (inactive) | > 100 µM (inactive) | 
5 | CCN(CC)CCCOC(=O)/C=C/c1c(C)[nH]c(=O)[nH]c1=O | > 95.1 µM (inactive) | > 625 µM (inactive) | > 625 µM (inactive) | > 625 µM (inactive) | > 625 µM (inactive) | > 625 µM | > 625 µM (inactive) | > 625 µM (inactive) | > 625 µM (inactive) | > 625 µM (inactive) | > 625 µM (inactive) | > 394 µM (inactive) | > 625 µM (inactive) | > 243 µM (inactive) | > 625 µM (inactive) | > 625 µM (inactive) | > 625 µM (inactive) | > 625 µM (inactive) | > 625 µM (inactive) | > 625 µM (inactive)
6 | CSc1nc(NC2OC(CO)C(O)C(O)C2O)c(N)c(=O)n1C (stereo not given) | > 100 µM (inactive) |  | > 100 µM (inactive) | > 100 µM (inactive) | > 100 µM (inactive) | > 100 µM | > 100 µM (inactive) | > 100 µM (inactive) | > 100 µM (inactive) | > 100 µM (inactive) | > 100 µM (inactive) | > 100 µM (inactive) | > 100 µM (inactive) | > 100 µM (inactive) | > 100 µM (inactive) | > 100 µM (inactive) | > 100 µM (inactive) | > 100 µM (inactive) | > 100 µM (inactive) | > 100 µM (inactive)
7 | CO/N=C1/c2sccc2[C@H](NC(=O)C(Cc2ccccc2)NC(=O)OC(C)(C)C)[C@@H]1O (stereo not given in full) | > 100 µM (inactive) | > 100 µM (inactive) | > 100 µM (inactive) |  |  | > 100 µM | 85.1 µM (inactive) |  |  |  |  | 45.6 µM (inactive) | > 100 µM (inactive) | > 100 µM (inactive) | > 100 µM (inactive) | > 100 µM (inactive) | > 100 µM (inactive) | > 100 µM (inactive) | 51.4 µM (inactive) | 
8 | CCC1CN2CCc3cc(OC)c(OC)cc3C2CC1CC1c2cc(OC)c(OC)cc2CCN1C(=O)C(N)Cc1ccccc1.[O-][Cl+3]([O-])([O-])O (stereo not given) | 3.24 µM (inactive) | 1.95 µM (inactive) | 0.41 µM (active) | 3.38 µM (inactive) | 1.98 µM (inactive) | 1.72 µM | 1.59 µM (inactive) |  | 1.07 µM (active) | 1.77 µM (inactive) | 0.385 µM (active) |  | 3.32 µM (inactive) | 2.35 µM (inactive) | 2.94 µM (inactive) | 0.49 µM (active) | 2.06 µM (inactive) | 3.11 µM (inactive) | 2.13 µM (inactive) | 1.34 µM (inactive)
9 | CNC(=S)N/N=C(/C)CCC/C(C)=N/NC(=S)NC | > 75 µM (inactive) | > 100 µM (inactive) | 0.145 µM (active) |  |  | 11 µM | > 100 µM (inactive) |  |  | > 100 µM (inactive) | 0.728 µM (active) | 1.69 µM (inactive) | > 34.6 µM (inactive) | > 74.5 µM (inactive) | 29 µM (inactive) |  | > 42.1 µM (inactive) | > 58.2 µM (inactive) | > 54.8 µM (inactive) | 
10 | C[n+]1ccc(Nc2ccc(NC(=O)c3ccc(Nc4cc[n+](C)c5ccc([N+](=O)[O-])cc45)cc3[N+](=O)[O-])cc2)cc1 | 36.7 µM (inactive) | > 75.3 µM (inactive) | 24.4 µM (inactive) | > 92 µM (inactive) | 34.9 µM (inactive) | 44.8 µM |  | 20.3 µM (inactive) |  | 65.9 µM (inactive) | 16.6 µM (inactive) | 51.2 µM (inactive) | 25.9 µM (inactive) | 57.4 µM (inactive) | > 57.4 µM (inactive) | > 100 µM (inactive) | 22.6 µM (inactive) | 26.1 µM (inactive) | 45.3 µM (inactive) | > 41.3 µM (inactive)
11 | COc1cc(O)c(Cc2ccccc2O)c(O)c1C(=O)CCc1ccccc1 [UVARETIN] | 1.48 µM (inactive) | 5.24 µM (inactive) | 6.21 µM (inactive) | 7.33 µM (inactive) | 4.39 µM (inactive) | 5.71 µM | 4.43 µM (inactive) | 0.713 µM (active) | 7.35 µM (inactive) | 6.81 µM (inactive) | 2.3 µM (inactive) | 6.55 µM (inactive) | 7 µM (inactive) | 4.82 µM (inactive) | 6.92 µM (inactive) | 7.23 µM (inactive) | 5.12 µM (inactive) | 4.4 µM (inactive) | 6.21 µM (inactive) | 3.21 µM (inactive)
